# Data from US8901317B2, “Tryptamine derivatives, their preparation and their use in gastropathy” (Council of Scientific & Industrial Research, priority 2010, dated 2014).
# Tested on: not listed separately
# Experiment: Ferric reducing antioxidant power (FRAP) assay
# Settings: 6 min; compound at 10 μM relative to ferrous sulfate
# Experimental: The antioxidant property of different tryptamine derivatives were assessed and compared with the known antioxidants for potency. […] The FRAP assay is based on the measurement of the ability of the substance to reduce Fe^3+ to Fe^2+, greater the reducing ability greater the anti oxidant property. Antioxidants reduce Fe^3+-TPTZ in to blue colored Fe^2+-TPTZ complex, which results in an increase in the absorbance at 595 nm giving a FRAP value. […] Absorbance changes at different time intervals (FIG. 6) as well as at different concentrations (FIG. 7) at time 6 min in the presence of different compounds at 595 nm were measured. FRAP values at 6 min and 65 min were calculated from different tryptamine derivatives and some known antioxidant (Table 1). […] DPPH assay based on the DPPH free radicals scavenging power of the antioxidant molecules. Higher the scavenging power higher will be the antioxidant property.
# The assay was performed in a 96-well microplate. FRAP reagent was prepared by mixing of 10 ml acetate buffer (200 mM, pH-3.6), 1 ml of 2,4,6-tris(2-pyridyl)-s-triazine (TPTZ) solution (10 mM in 40 mM HCl) and 1 ml of ferric chloride solution (20 mM) in distilled water. For 1 h the mixture was kept in a water bath at 37° C. In 96-well microplates, 25 μL of the compounds under investigation dissolved (in methanol, some compound dissolved in water) at different concentrations in the range 1-25 μM was placed in triplicate and freshly prepared FRAP solution (175 μL) was added to this sample. A micro plate reader monitored the absorbance at 595 nm at different time intervals for up to 150 min. The absorbance of a mixture 175 μL TRAP sol and 25 μL methanol or water was taken which was subtracted from the absorbance of the samples at each time interval to calculate the absorbance change (ΔA). The FRAP value at time interval t (FRAP valuet) was calculated according to the formula: FRAP valuet(M)=(ΔatFl/ΔatFe^2+)×10^−5 Where ΔatFl is the absorbance change after the time interval t (6 and 65 min) relative to the tested flavonoid at the concentration of 10 μM and ΔatFe^2+ is the absorbance change at the same time interval relative to ferrous sulfate at the same concentration (Pal, C; et al. Free Radic Biol Med, 49(2), 258-267, 2010, Firuzi, O; et al. Biochim. Biophys. Acta 1721:174-184; 2005).
row,Structure (SMILES),FRAP Value6 min (μM) M ± SD [µM]
1,"O=c1c(O)c(-c2ccc(O)c(O)c2)oc2cc(O)cc(O)c12 [Quercetin, reference compound]",28.11 ± 1.00
2,"NCCc1c[nH]c2ccc(O)cc12 [Serotonin, 5-hydroxytryptamine, reference compound]",21.61 ± 3.65

# Same assay, conditions: 65 min; compound at 10 μM relative to ferrous sulfate
row,Structure (SMILES),FRAP Value65 min (μM) M ± SD [µM]
1,"O=c1c(O)c(-c2ccc(O)c(O)c2)oc2cc(O)cc(O)c12 [Quercetin, reference compound]",48.55 ± 4.85
2,"NCCc1c[nH]c2ccc(O)cc12 [Serotonin, 5-hydroxytryptamine, reference compound]",35.48 ± 6.55

# Same assay, conditions: compared to other tryptamine derivatives and known antioxidants
row,Structure (SMILES),reducing ability (Fe^3+ to Fe^2+) / antioxidant property in words
1,"NCCc1c[nH]c2ccc(O)cc12 [Serotonin, 5-hydroxytryptamine, reference compound]",very little antioxidant property

# Tested on: indomethacin-induced gastric mucosal damage
# Experiment: Indomethacin-induced gastric mucosal damage (ulcer index, histology)
# Assay type: in vivo, Sprague-Dwaley rats
# Settings: indomethacin 48 mg kg^−1 alone, oral; rats
# Experimental: Sprague-Dwaley rats (180-220 gm) were used for this study. Each group (control or experimental) of animals was maintained at 24±2° C. with 12 hrs lights and dark cycle. The animals were fasted for 24 hrs before the start of experiments. They were provided with water ad libitum to avoid food-induced increased acid secretion and its effect on gastric lesions. Gastric mucosal ulcer was developed by indomethacin as described (Pal, C; et al. Free Radic Biol Med, 49(2), 258-267; 2010, Biswas, K.; et al. J. Biol. Chem. 278:10993-11001; 2003, Bandyopadhyay, U.; et al. Life Sci. 71:2845-2865; 2002). Briefly, all the animals were divided into control, indomethacin and test compound group. Oral administration of indomethacin at a dose of 48 mg kg^−1 b.w was given to the fasted animals to induce gastric ulcer. […] Control group received vehicle only but no indomethacin. After 4 hrs of indomethacin treatment, the animals were sacrificed under proper euthanasia and stomachs were collected. The mucosal injury was scored as ulcer index as follows: 0=no pathology; 1=one pinhead ulcer. The sum of the total scores divided by the number of animals gave the ulcer index. All the in vivo studies were done in accordance with the institute animal ethical committee guidelines. To see the effect of SEGA on diclofenac induced gastric mucosal injury, gastric mucosal damage was developed by the oral administration of diclofenac (75 mg kg^−1) and the rest of the experiment was carried out in a similar way as described for indomethacin. Diclofenac produced pinhead ulcer like indomethacin and the mucosal injury was scored as ulcer index as described above. Ethanol-induced gastric mucosal injury was developed with oral administration of 1 ml of 50% ethanol (Banerjee, R. K. (2002) Life Sci 71, 2845-2865) and after 4 hrs the animals were sacrificed and cold-restrain stress induced mucosal injury was developed by immobilizing the animals at 4° C. for 3.5 hrs (Banerjee, R. K. (2002) Life Sci 71, 2845-2865, (2003) J Biol Chem 278, 10993-11001).
# Stomach tissues from the animals of different groups were washed first washed several times with PBS (pH 7.4) and later fixed in 10% buffered formalin for 12 hrs at 25° C. The formalin-fixed tissues were then dehydrated and embedded in paraffin for preparing semi-thin sections (Maity, P.; et al. J. Biol. Chem. 283:14391-14401; 2008). The semi-thin sections were prepared using a microtome and taken over poly-L-lysine coated glass slide for hematoxylene-eosine staining. The stained sections were observed under microscope (Leica DM-2500, Germany) and were documented by high-resolution digital camera.
row,Structure (SMILES),Gastric mucosal damage (ulcer index)
1,"COc1ccc2c(c1)c(CC(=O)O)c(C)n2C(=O)c1ccc(Cl)cc1 [Indomethacin, reference compound]",61 ± 3

# Tested on: rats
# Experiment: Toxicity (death) after injection in rats
# Assay type: in vivo
# Settings: i.p. 25 mg kg^−1
row,Structure (SMILES),death of rats after injection
1,"NCCc1c[nH]c2ccc(O)cc12 [Serotonin, 5-hydroxytryptamine, reference compound]",all the rats were found to be dead

# Same assay, conditions: i.p. 50 mg kg^−1
row,Structure (SMILES),death of rats after injection
1,"NCCc1c[nH]c2ccc(O)cc12 [Serotonin, 5-hydroxytryptamine, reference compound]",all the rats were found to be dead
